Reference: US10646489B2, “Compositions and methods for increasing energy metabolism” (NuSirt Sciences, Inc., priority 2012, dated 2020)

Experiments:
[1] = tested on: 3T3-L1 adipocytes; experiment: Glucose utilization (extracellular acidification response to glucose injection) in 3T3-L1 adipocytes / adipocytes; type: cell-based; conditions: 3T3-L1 cells; leucine alone; p<0.05
Procedure: Glucose utilization was measured as extracellular acidification response to glucose injection. *p=0.05. […] Treatment with 0.5 mM leucine corresponds to a circulating level of the same molarity achieved by administering about 1,125 mg of dietary leucine to a human subject. Treatment with 0.25 mM leucine corresponds to a circulating level of the same molarity achieved by administering about 300 mg of dietary leucine to a human subject.

[2] = tested on: C2C12 myotubes; experiment: Mitochondrial biogenesis measured as mitochondrial mass in C2C12 myotubes; type: cell-based; conditions: C2C12 cells treated with leucine alone; p<0.05
Procedure: The output of the pathways can be measured using one or more methods, disclosed herein and/or known in the art. […] Mitochondrial biogenesis can be measured using a mitochondrial probe by using fluorescence. AMPK activity can be determined by measuring AMPK phosphorylation via an ELISA assay or by Western blot. Sirt1 activity can be determined by measuring deacetylation of a substrate, which can be detected using a fluorophore. […] Treatment with 0.5 mM leucine corresponds to a circulating level of the same molarity achieved by administering about 1,125 mg of dietary leucine to a human subject. Treatment with 0.25 mM leucine corresponds to a circulating level of the same molarity achieved by administering about 300 mg of dietary leucine to a human subject.

[3] = tested on: diet-induced obese mouse; experiment: Post-prandial glucose, insulin and HOMAIR in the diet-induced obese mouse; type: in vivo; conditions: 7 days of treatment, leucine 24 g/kg diet, icariin 25 mg/kg diet
Procedure: The interactive effects of icariin, a flavanol with specific PDE5 inhibitory properties, on glycemia and insulin sensitivity were assessed in the diet-induced obese mouse, which can be used as a murine model of type 2 diabetes. Male C57/BL6 mice were placed on standard low-fat chow (control; 10% energy from fat) or high fat (60% energy from fat, Research Diets # D12492, Research Diets, Inc, New Brunswick, N.J.) at six weeks of age to induce insulin resistance. […], with 10 animals per group: Low fat diet (LFD) control; High fat diet (HFD) control; HFD+leucine (24 g/kg diet, a two-fold increase over control levels)1 HFD+leucine (24 g/kg diet)+icariin (25 mg/kg diet). […] Mice were fasted overnight (˜16 hours) prior to measurement of fasting blood glucose, insulin and glucose tolerance. Glucose tolerance was determined following measurement of fasting glucose via intraperitoneal administration of glucose (1.2 g/kg body weight) followed by blood glucose measurement at 15, 30, 60, 90 and 120 minutes. Post-prandial glucose was measured within one hour of cessation of eating. Insulin tolerance was measured via an insulin tolerance test (ITT). Food was removed 4-6 hours prior to ITT, and baseline blood glucose measured. The mice were then injected intraperitoneally with insulin (1.2 U/kg body weight) and blood glucose was measured 15, 30, 60, 90 and 120 minutes following insulin injection. The homeostasis model assessment of insulin resistance (HOMAIR) was used as a screening index of changes in insulin sensitivity. HOMAIR is calculated via standard formula from fasting plasma insulin and glucose as follows: HOMAIR=[Insulin (uU/mL)×glucose (mM)]/22.5. The plasma glucose and insulin concentrations were measured using the Glucose Assay Kit from Biovision (Milpitas, Calif.) and the Insulin kit from Millipore (Billerica, Mass.), respectively. CRP levels in plasma were determined by ELISA (CRP: Life Diagnostics, West Chester, Pa.).

## leucine
[1]
  glucose utilization, agent alone: 48.6%
[2]
  mitochondrial biomass: 22.05+/−0.4 AFU/μg protein
[3]
  reduction in post-prandial glucose vs. untreated HFD mice: no independent effect
